# Measurements reported in the supplement of paper PMC13207355.
# Structures can show the parent of a compound that is named as a salt.
# Assays:
# Settings in all cases: exposure time: 72 h
# E13 [1] = patient-derived glioblastoma stem cells of classical subtype; assay: phenotypic distance (Euclidean, principal components) from DMSO controls (arbitrary units); higher = stronger morphological change
# E31 [2] = patient-derived glioblastoma stem cells of proneural subtype; assay: as above
# E28 [3] = patient-derived glioblastoma stem cells of classical subtype; assay: as above
# FT3469 [4] = normal neural stem cell line; assay: as above
# E34 [5] = patient-derived glioblastoma stem cells of proneural subtype; assay: as above
# E57 [6] = patient-derived glioblastoma stem cells of mesenchymal subtype; assay: as above
# E21 [7] = patient-derived glioblastoma stem cells of mesenchymal subtype; assay: as above
# E13 [8] = assay: surviving fraction (nuclei count normalised to DMSO); higher = more cells surviving (less toxic)
# E31 [9] = assay: as above
# E28 [10] = assay: as above
# FT3469 [11] = assay: as above
# E34 [12] = assay: as above
# E57 [13] = assay: as above
# E21 [14] = assay: as above
# 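For phenotypic distance (Euclidean, principal components) from DMSO controls in this document: cell Painting imaging in 384-well plates, CellProfiler features reduced to at least 20 principal components, Euclidean distance versus same-plate DMSO vehicle wells (0.1% v/v), median over six images per well.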
# 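For surviving fraction (nuclei count normalised to DMSO) in this document: nuclei counted by high-content imaging of Hoechst-stained cells in laminin-coated 384-well plates, relative to 0.1% DMSO vehicle wells, with staurosporine as cell-death control.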
compound,measurement,setting,value
COc1cccc2c1C(=O)c1c(O)c3c(c(O)c1C2=O)C[C@@](O)(C(C)=O)C[C@@H]3O[C@H]1C[C@H](N)[C@H](O)[C@H](C)O1 [Daunorubicin hydrochloride],phenotypic distance,E13 [1]; 4.1 nM,3.33
same,phenotypic distance,E13 [1]; 12.3 nM,4.36
same,phenotypic distance,E13 [1]; 37 nM,6.02
same,phenotypic distance,E13 [1]; 111.1 nM,5.64
same,phenotypic distance,E13 [1]; 333.3 nM,5.87
same,phenotypic distance,E13 [1]; 1000 nM,7.81
same,phenotypic distance,E13 [1]; 3000 nM,5.88
same,phenotypic distance,E31 [2]; 4.1 nM,2.77
same,phenotypic distance,E31 [2]; 12.3 nM,2.46
same,phenotypic distance,E31 [2]; 37 nM,2.46
same,phenotypic distance,E31 [2]; 111.1 nM,4.45
same,phenotypic distance,E31 [2]; 333.3 nM,4.56
same,phenotypic distance,E31 [2]; 1000 nM,7.33
same,phenotypic distance,E31 [2]; 3000 nM,5.46
same,phenotypic distance,E28 [3]; 4.1 nM,1.76
same,phenotypic distance,E28 [3]; 12.3 nM,2.56
same,phenotypic distance,E28 [3]; 37 nM,2.56
same,phenotypic distance,E28 [3]; 111.1 nM,3.09
same,phenotypic distance,E28 [3]; 333.3 nM,3.78
same,phenotypic distance,E28 [3]; 1000 nM,3.13
same,phenotypic distance,E28 [3]; 3000 nM,5.54
same,phenotypic distance,FT3469 [4]; 4.1 nM,1.72
same,phenotypic distance,FT3469 [4]; 12.3 nM,1.77
same,phenotypic distance,FT3469 [4]; 37 nM,2.11
same,phenotypic distance,FT3469 [4]; 111.1 nM,2.17
same,phenotypic distance,FT3469 [4]; 333.3 nM,2.57
same,phenotypic distance,FT3469 [4]; 1000 nM,4.08
same,phenotypic distance,FT3469 [4]; 3000 nM,7.48
same,phenotypic distance,E34 [5]; 4.1 nM,1.67
same,phenotypic distance,E34 [5]; 12.3 nM,4.29
same,phenotypic distance,E34 [5]; 37 nM,4.68
same,phenotypic distance,E34 [5]; 111.1 nM,3.18
same,phenotypic distance,E34 [5]; 333.3 nM,2.84
same,phenotypic distance,E34 [5]; 1000 nM,4.23
same,phenotypic distance,E34 [5]; 3000 nM,3.57
same,phenotypic distance,E57 [6]; 4.1 nM,3.27
same,phenotypic distance,E57 [6]; 12.3 nM,6.2
same,phenotypic distance,E57 [6]; 37 nM,9.2
same,phenotypic distance,E57 [6]; 111.1 nM,7.86
same,phenotypic distance,E57 [6]; 333.3 nM,6.42
same,phenotypic distance,E57 [6]; 1000 nM,6.83
same,phenotypic distance,E57 [6]; 3000 nM,7.19
same,phenotypic distance,E21 [7]; 4.1 nM,1.95
same,phenotypic distance,E21 [7]; 12.3 nM,4.33
same,phenotypic distance,E21 [7]; 37 nM,6.78
same,phenotypic distance,E21 [7]; 111.1 nM,5.96
same,phenotypic distance,E21 [7]; 333.3 nM,5.7
same,phenotypic distance,E21 [7]; 1000 nM,6.37
same,phenotypic distance,E21 [7]; 3000 nM,6.06
same,surviving fraction,E13 [8]; 4.1 nM,0.54
same,surviving fraction,E13 [8]; 12.3 nM,0.512
same,surviving fraction,E13 [8]; 37 nM,0.342
same,surviving fraction,E13 [8]; 111.1 nM,0.381
same,surviving fraction,E13 [8]; 333.3 nM,0.216
same,surviving fraction,E13 [8]; 1000 nM,0.0373
same,surviving fraction,E13 [8]; 3000 nM,0.0142
same,surviving fraction,E31 [9]; 4.1 nM,0.51
same,surviving fraction,E31 [9]; 12.3 nM,0.293
same,surviving fraction,E31 [9]; 37 nM,0.266
same,surviving fraction,E31 [9]; 111.1 nM,0.134
same,surviving fraction,E31 [9]; 333.3 nM,0.0818
same,surviving fraction,E31 [9]; 1000 nM,0.0315
same,surviving fraction,E31 [9]; 3000 nM,0.0944
same,surviving fraction,E28 [10]; 4.1 nM,0.408
same,surviving fraction,E28 [10]; 12.3 nM,0.419
same,surviving fraction,E28 [10]; 37 nM,0.339
same,surviving fraction,E28 [10]; 111.1 nM,0.251
same,surviving fraction,E28 [10]; 333.3 nM,0.185
same,surviving fraction,E28 [10]; 1000 nM,0.187
same,surviving fraction,E28 [10]; 3000 nM,0.11
same,surviving fraction,FT3469 [11]; 4.1 nM,0.644
same,surviving fraction,FT3469 [11]; 12.3 nM,0.625
same,surviving fraction,FT3469 [11]; 37 nM,0.487
same,surviving fraction,FT3469 [11]; 111.1 nM,0.606
same,surviving fraction,FT3469 [11]; 333.3 nM,0.593
same,surviving fraction,FT3469 [11]; 1000 nM,0.0798
same,surviving fraction,FT3469 [11]; 3000 nM,0.0266
same,surviving fraction,E34 [12]; 4.1 nM,0.644
same,surviving fraction,E34 [12]; 12.3 nM,0.611
same,surviving fraction,E34 [12]; 37 nM,0.591
same,surviving fraction,E34 [12]; 111.1 nM,0.445
same,surviving fraction,E34 [12]; 333.3 nM,0.471
same,surviving fraction,E34 [12]; 1000 nM,0.259
same,surviving fraction,E34 [12]; 3000 nM,0.0925
same,surviving fraction,E57 [13]; 4.1 nM,0.583
same,surviving fraction,E57 [13]; 12.3 nM,0.325
same,surviving fraction,E57 [13]; 37 nM,0.194
same,surviving fraction,E57 [13]; 111.1 nM,0.178
same,surviving fraction,E57 [13]; 333.3 nM,0.149
same,surviving fraction,E57 [13]; 1000 nM,0.0932
same,surviving fraction,E57 [13]; 3000 nM,0.0598
same,surviving fraction,E21 [14]; 4.1 nM,0.844
same,surviving fraction,E21 [14]; 12.3 nM,0.597
same,surviving fraction,E21 [14]; 37 nM,0.451
same,surviving fraction,E21 [14]; 111.1 nM,0.343
same,surviving fraction,E21 [14]; 333.3 nM,0.151
same,surviving fraction,E21 [14]; 1000 nM,0.0632
same,surviving fraction,E21 [14]; 3000 nM,0.055
